Results taken from a melting point compilation (Tetko et al.; mined from patent text by program, amines drawn as free bases though some values may be those of a salt).

First: COc1ccc(Cl)cc1C(=O)NCCc1ccc(-c2cc(C)cs2)c(S(N)(=O)=O)c1
Second: COc1ccc2c(c1)c(CCNC(C)=O)cn2S(=O)(=O)c1ccc(C)cc1
The melting point of the first is higher: 165 to 168 °C for the first, 132 to 133 °C for the second.

Compared with `OCc1ccc(-c2ccccc2)s1`, `COc1ccc2cc(Cc3ccccc3)sc2c1` is lower in melting point: 91.5 °C for the first, 60 to 61 °C for the second.

Compared with `N#Cc1c(N)cccc1Sc1ccccc1`, `OCCSc1nc2ccc(Cc3ccccc3)cc2[nH]1` is higher in melting point: 73 to 77 °C for the first, 108 to 109 °C for the second.

Compared with `Cc1c(C(=O)c2ccccc2)[nH]c(CC(=O)O)c1C(=O)O`, `CC(=O)Nc1c(C(=O)c2ccccc2)[nH]c2cc([N+](=O)[O-])ccc12` is lower in melting point: 250 to 253 °C for the first, 234 to 236 °C for the second.

First: CC(C)OC(=O)N1CCC(c2nc3cc(-c4ccc(C(=O)NC5CC5)c(F)c4)ccc3o2)CC1
Second: O=C(O)c1cn(C2CC2)c2cc(N3CCC(c4ccncc4)C3)c(F)cc2c1=O (configuration not stated)
The melting point of the first is lower: 162 to 165 °C for the first, 260 to 261 °C for the second.

Compared with `Cc1ccccc1Nc1ccccc1C=C(Br)Br`, `COc1cc(C=O)ccc1OC(=O)NCCc1ccccc1` is higher in melting point: 65 to 67 °C for the first, 133 to 138 °C for the second.

First: O=C(O)CCCCCCCCCC#CC#Cc1ccco1
Second: CSc1cc(C)nc(SC)c1NC(=O)CCCCCCSc1nc2cccc(C(F)(F)F)c2o1
The melting point of the first is lower: 62.6 to 63.5 °C for the first, 129 to 131 °C for the second.

Compared with `CCNc1nc(Cl)nc2nc[nH]c12`, `Cc1nc(C)c(Cl)c(NCc2ccc(O)cc2)n1` is lower in melting point: 237 to 239 °C for the first, 202 °C for the second.

First: C[C@@H]1N(C)C(C)(C)CO[C@@]1(O)c1cccc(Cl)c1
Second: CC1N(C)c2cc([N+](=O)[O-])ccc2C1(C)C (configuration not stated)
The melting point of the first is higher: 128 to 129 °C for the first, 55 to 59 °C for the second.

First: O=C(NC(c1ccccc1)c1cc2ccncc2[nH]1)c1ccncc1 (configuration not stated)
Second: O=C(NO)c1ccc(C(=O)NOCc2cccc3ccccc23)cc1
The melting point of the first is lower: 182 to 192 °C for the first, 192 to 194 °C for the second.

First: COC(=O)C(=O)c1ccc(S(=O)CCOc2ccc3ccccc3c2)cc1 (configuration not stated)
Second: COC(=O)C(=O)c1ccc(OCc2ccc3ccccc3n2)cc1
The melting point of the first is higher: 129 to 130 °C for the first, 109 to 110 °C for the second.

First: CCC(Oc1ccccc1Br)C(=O)OC1CC(O)C=C2C=CC(C)C(CCC3CC(O)CC(=O)O3)C21 (mixture of isomers)
Second: CCCn1cnc(C(N)=O)c1NC(=O)c1ccccc1OCC
The melting point of the first is lower: 160 to 162 °C for the first, 182 to 184 °C for the second.

First: O=S(=O)(CC(F)(F)F)c1nc2cc(Cl)c(Cl)cc2[nH]1
Second: CC(C)(C)c1cc(N)n(-c2c(Cl)cc(C(F)(F)F)cc2Cl)n1
The melting point of the first is higher: 190 to 192 °C for the first, 110 to 120 °C for the second.

Compared with `Fc1ccc(-c2nc3c(c(=S)[nH]2)CCCC3)cc1`, `N#Cc1ccsc1C1=CC(=O)Nc2cc(-c3ccc(F)cc3)ccc2N1` is higher in melting point: 198 to 200 °C for the first, 239 to 240 °C for the second.

Compared with `O=C(CBr)Nc1ccc(Cl)cc1C(=O)c1c(F)cccc1F`, `CON=C(N)C1=Nc2ccc(Cl)cc2C(c2ccccc2F)=NC1` is lower in melting point: 146 to 148 °C for the first, 120 to 124 °C for the second.

First: CON(C)C(=O)CNC(=O)OC(C)(C)C
Second: CC=C(Cc1ccccc1)NNC(=O)OC(C)(C)C
The melting point of the first is higher: 92 to 95 °C for the first, 76 to 79 °C for the second.

Compared with `Cc1c(F)c(F)c(F)c2c1c(=O)c(C(=O)O)cn2C1CC1`, `COc1nc(C(F)(F)C(F)(F)F)cc(=O)n1-c1cc(C(=O)O)c(Cl)cc1F` is lower in melting point: 234 to 235 °C for the first, 197 to 199 °C for the second.

First: CC(=O)C1CCC2C3CCC4CC5OC5CC4(C)C3C(OC(=O)CCl)CC12C (configuration not stated)
Second: CCOC(=O)C=C(C)NC(=O)C(C)(C)CCl
The melting point of the first is higher: 163 to 169 °C for the first, 76 to 77.5 °C for the second.

Compared with `O=C(Nc1ccc(-n2nc(C(F)(F)F)cc2C(F)(F)F)cc1)c1cccc(F)c1`, `CN(C)Cc1cnc2cc(NC(=O)c3ccc(-c4ccc(Cl)cc4)cc3)ccc2c1` is higher in melting point: 148 to 151 °C for the first, 236 to 238 °C for the second.

Compared with `CCOC(=O)C(C#N)c1cn(C(=O)OCC)c2ccc(OC)cc12` (configuration not stated), `CCOC(=O)c1cn2cnc3ccccc3c2c1C(=O)OCC` is higher in melting point: 81 to 83 °C for the first, 125 to 126 °C for the second.

Compared with `Cc1ccc(N2C(=O)C(O)=C(C(=O)c3ccc(OC(F)(F)F)cc3)C2c2ccc(Cn3cncn3)cc2)nn1` (configuration not stated), `Cn1cc(CNC(=O)c2ccnc(N3CCN(Cc4ccc(F)cc4)C3=O)c2)cn1` is lower in melting point: 224 °C for the first, 165 to 166 °C for the second.

First: CN1CC(CCN2CCN(c3ccc(Br)cc3)CC2)OC1=O (configuration not stated)
Second: NC(=S)NC[C@H]1CN(c2ccc(N3CCN(C(=O)CO)CC3)c(F)c2)C(=O)O1
The melting point of the first is lower: 125 to 127 °C for the first, 209 to 210 °C for the second.

First: CCOC(=O)c1cn(C(C)(C)CO[Si](C)(C)C(C)(C)C)c2cc(Br)ccc2c1=O
Second: CCOC(=O)c1ccc(Cl)nc1NCc1ccc(OC)c(Cl)c1
The melting point of the first is higher: 133 °C for the first, 108 to 112 °C for the second.

Compared with `COc1ccccc1[C@H](C)C(=O)O`, `CC(C)=Nc1c(-c2ccccc2)[nH]c(C)c1C(N)=O` is higher in melting point: 102 °C for the first, 221 to 223 °C for the second.

First: CC(C#N)(COc1ccc(Cl)cc1)S(=O)(=O)Cc1ccc(Cl)cc1 (configuration not stated)
Second: O=S(=O)(Cc1ccccc1)On1nnc2ccc(Cl)cc21
The melting point of the first is lower: 119 to 120 °C for the first, 126 to 128 °C for the second.

Compared with `CSc1nc2ccc3c(c2o1)C(CCNC(C)=O)CC3` (configuration not stated), `Cc1oc(C=Cc2cccc(C(F)(F)F)c2)nc1CC(=O)O` is higher in melting point: 115 to 117 °C for the first, 157 to 158 °C for the second.

Compared with `CS(=O)(=O)c1c(F)nc(F)nc1F`, `Cn1nnc2cccc(S(N)(=O)=O)c21` is higher in melting point: 103 to 105 °C for the first, 198 to 200 °C for the second.

Compared with `CCN(CC)CCn1cc(C(=O)NCc2ccc(Cl)cc2)c(=O)c2cc(C#CCO)ccc21`, `O=C(NCCN1CCCCC1)c1ccc(=O)n(Cc2ccc(-c3ccccc3)cc2)c1` is lower in melting point: 145 to 148 °C for the first, 137 to 142 °C for the second.

First: C=CCOC(=O)C1=C(C)NC(C)=C(C(=O)OCC=C)C1c1ccc(Br)cc1
Second: CC(C)Cc1nccc2c(CC(=O)O)cccc12
The melting point of the first is lower: 130 to 131 °C for the first, 152 °C for the second.

First: Cc1cccc(C)c1C1CCN(Cc2cc3ccccc3[nH]2)CC1
Second: O=Cc1c2ccsc2cc2c1ccc1ccccc12
The melting point of the first is lower: 128 to 130 °C for the first, 178 to 180 °C for the second.

First: CN(C)CCNC(=O)c1ccc2c(c1)CN(C(=O)CCCCCN1CCN(c3cccc(C(F)(F)F)c3)CC1)C2
Second: CC(C)(C)OC(=O)N1CCN(c2ccc(Nc3ncc4ccc(N)nc4n3)cc2)CC1
The melting point of the first is lower: 120 °C for the first, 219 to 220 °C for the second.

Compared with `Cc1cc(Cl)ccc1N=CN(C)SN(c1ccccc1)c1ccccc1`, `Oc1ccc(-c2nnc(CSCCOc3ccccc3)n2Cc2ccccc2)cc1` is lower in melting point: 78 to 79 °C for the first, 64 to 66 °C for the second.

First: COCc1nc(N)nc(N)c1-c1cc(Cl)cc(Cl)c1Cl
Second: Nc1nc(COc2ccc(Cl)c(Cl)c2)nc2nccnc12
The melting point of the first is higher: 265 to 268 °C for the first, 261 to 263 °C for the second.

First: CCc1cc(Nc2ccc(Sc3ccncc3)cc2)nc(N)n1
Second: CCCSc1nc(-c2ccc(C#N)cc2)cn1-c1ccc(I)cc1
The melting point of the first is higher: 181 to 186 °C for the first, 110 to 115 °C for the second.

Compared with `CCOC(=O)c1ccc(-c2ccc(-c3cccc(OC)c3)c(-c3ccc4c(c3)C(C)(C)CCC4(C)C)c2)cc1`, `CC1(C)CCC(C)(C)c2cc(C#Cc3ccc(S(C)(=O)=O)cc3)ccc21` is higher in melting point: 116 to 118 °C for the first, 153 to 155 °C for the second.

First: O=C1O[C@H](C(O)O)CCN1Cc1ccccc1
Second: CCCn1c(N)cc(=O)n1-c1ccccc1
The melting point of the first is lower: 120 °C for the first, 183 to 185 °C for the second.

First: CCCCNc1n[nH]c(C)c1C(=O)OCC
Second: CCCCS(=O)c1ccc(C(=O)OC)nc1 (configuration not stated)
The melting point of the first is lower: 109 to 110 °C for the first, 150 to 154 °C for the second.

First: O=C(NCc1ccc(Cl)c(Cl)c1)Nc1cccc2[nH]ccc12
Second: COc1ccc(CN2C(=O)C3(COc4cc5onc(N)c5cc43)c3ccccc32)cc1 (configuration not stated)
The melting point of the first is lower: 201 °C for the first, 214 to 216 °C for the second.

`CN1C(=O)Cn2c(CCl)nnc2-c2cc(Cl)ccc21` and `CCOC1=NS(=O)(=O)c2cc(NC=O)ccc21` cannot be ordered by melting point: 193 to 194 °C for the first, 188 to 194 °C for the second.

First: COC(=O)c1cccc2c1N(CCN(C(C)C)C(C)C)C(=O)/C2=N\NC(N)=O
Second: CCOc1nn(C(=O)NS(=O)(=O)c2c(C)csc2C(=O)OC)c(=O)n1C
The melting point of the first is higher: 192 to 195 °C for the first, 169 °C for the second.

First: CC(C)(C)c1cc(CCc2ccccc2NC(=O)N(Cc2ccccc2)C2CCCCCC2)cc(C(C)(C)C)c1O
Second: CC(C)(C)c1cc(C(=O)NCC(=O)Nc2ccc(N=C(N)c3cccs3)cc2)cc(C(C)(C)C)c1O
The melting point of the first is lower: 183 to 184 °C for the first, greater than 250 °C for the second.

First: CN1CCN(C(=O)OC2C3=C(SCCS3)C(=O)N2c2ccc3c(Cl)ccnc3n2)CC1 (configuration not stated)
Second: COc1cc(Nc2c(C#N)cnc3cc(C#CCCN4CCN(C)CC4)c(OC)cc23)c(Cl)cc1Cl
The melting point of the first is higher: 240 °C for the first, 165 to 167 °C for the second.

Going from `CC(C)(C)CC1(C)CC(C)(C)c2ccc(O)cc21` (configuration not stated) to `CN1C(=O)C(C#N)(c2ccc(OCC(O)CNC(C)(C)C)cc2)Sc2ccccc21` (configuration not stated), the melting point rises from 102 °C to 160 °C.

First: O=C1NCc2c1cc1ccc3c(c1c2-c1ccc(Br)cc1)OCO3
Second: COc1cc(F)ccc1Nc1ccc2c(c1)OCc1cc([N+](=O)[O-])ccc1C2=O
The melting point of the first is higher: 273 to 274 °C for the first, 222 °C for the second.

First: CCCOc1nc2ccccc2[nH]1
Second: CCOP(=O)(OCC)C(CCc1cc(C)nc2c(C#N)c(-c3ccccc3)nn12)P(=O)(OCC)OCC
The melting point of the first is higher: 163 to 164 °C for the first, 107 °C for the second.

Compared with `CCN(CC)CCOCCc1ccc2c(c1)OCO2`, `CC(C)(O)Cn1cnc2c(N)nc3cc(CCS(C)(=O)=O)ccc3c21` is higher in melting point: 83 to 84 °C for the first, 269 to 271 °C for the second.

Compared with `CC1(CF)C(=O)N(c2ccc(C#N)c(C(F)(F)F)c2)C(=O)N1CC#N` (configuration not stated), `CC1CC(=O)NN=C1c1ccc(-n2ccc(CO)c2)cc1` (configuration not stated) is higher in melting point: 175 °C for the first, 184 to 186 °C for the second.

First: Cc1c([N+](=O)[O-])c([N+](=O)[O-])c(Cl)c2c1=NC(=O)C(=O)N=2
Second: CCC1Cc2cc(OCCCC(=O)O)c(Cl)c(Cl)c2C1=O (configuration not stated)
The melting point of the first is higher: 346 to 348 °C for the first, 146 to 148 °C for the second.

Compared with `CCOC(=O)c1cnc(C(=O)O)cn1`, `CC1CCCCC1C(=O)Nc1ccc(-c2cnc(-c3ccc(NC(=O)c4cccnc4)cc3)[nH]2)cc1` (configuration not stated) is higher in melting point: 150 to 153 °C for the first, 226 to 228 °C for the second.

First: CCCCc1nc(=O)c2cc(C3=NN(C(c4ccccc4)(c4ccccc4)c4ccccc4)[C@H]4C(=O)N(C)C(=O)[C@@H]34)ccc2[nH]1 (relative stereo)
Second: COc1ccc(OC)c2c1C(=O)c1c-2[nH]c2ccc(O)cc12
The melting point of the first is lower: 182 °C for the first, greater than 260 °C for the second.

Compared with `CSC(=NC#N)N1CCc2nc(N)sc2C1`, `CC(C)(C)NC(=O)[C@@H]1CC(=O)CN1C(=O)OC(C)(C)C` is lower in melting point: 152 to 155 °C for the first, 147 to 149 °C for the second.
